Columns and labels:
Type in all cases: in vivo
[1] = system: Echinochloa crus-galli; test: Test Example 7: herbicidal effect test by soil application in upland field (low dose); conditions: Echinochloa crus-galli, 7.5 g per 10 ares, sprayed one day after sowing, 14 days after application, read-out: weed inhibition rate
Outline: (§1)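 Read-out: weed inhibition rate (%) at 14 d post-treatment, duplicate pots per concentration. Seeds sown in the top 1 cm of upland alluvial loam; emulsifiable concentrate diluted in water and sprayed on the soil surface 1 d after sowing at 7.5 g a.i./10 a (100 L/10 a spray volume).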

[2] = system: Digitaria ciliaris; test: as above; conditions: Digitaria ciliaris, 7.5 g per 10 ares, sprayed one day after sowing, 14 days after application, read-out: weed inhibition rate
Outline: as §1

[3] = system: Echinochloa crus-galli; test: Test Example 8: herbicidal effect test by stem and leaf treatment in upland field (low dose); conditions: Echinochloa crus-galli; 7.5 g per 10 ares; sprayed seven days after sowing, upland soil; 14 days after application; read-out: weed inhibition rate
[4] = system: Digitaria ciliaris; test: as above; conditions: Digitaria ciliaris; 7.5 g per 10 ares; sprayed seven days after sowing, upland soil; 14 days after application; read-out: weed inhibition rate
[5] = system: Echinochloa crus-galli; test: Test Example 3: herbicidal effect test by soil application in upland field; conditions: Echinochloa crus-galli, 120 g per 10 ares, sprayed one day after sowing, 14 days after application, read-out: weed inhibition rate
Outline: (§2)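 Pre-emergence test: seeds mixed into top 1 cm of alluvial loam upland soil in pots; emulsifiable concentrate diluted in water sprayed on soil one day after sowing at 100 L/10 a, 120 g a.i./10 a. Weed inhibition rate (%) scored at 14 days, in duplicate.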

[6] = system: Digitaria ciliaris; test: as above; conditions: Digitaria ciliaris, 120 g per 10 ares, sprayed one day after sowing, 14 days after application, read-out: weed inhibition rate
Outline: as §2

[7] = system: Echinochloa crus-galli var. formosensis; test: Test Example 6: herbicidal effect test by application during growth period of paddy rice (low dose); conditions: Echinochloa crus-galli; 7.5 g per 10 ares; applied seven days after sowing, flooded pots; 14 days after application; read-out: weed inhibition rate
Outline: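 Low-dose water application, 7.5 g a.i. per 10 ares, given by dropper into flooded pots (about 3 cm depth) 7 days after sowing of 30 weed seeds each at 0–1 cm. Evaluation of inhibition (%) took place 14 days later, duplicate per rate.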

[8] = system: Digitaria ciliaris; test: Test Example 4: herbicidal effect test by stem and leaf treatment in upland field; conditions: Digitaria ciliaris; 120 g per 10 ares; sprayed seven days after sowing, upland soil; 14 days after application; read-out: weed inhibition rate
[9] = system: Echinochloa crus-galli; test: as above; conditions: Echinochloa crus-galli; 120 g per 10 ares; sprayed seven days after sowing, upland soil; 14 days after application; read-out: weed inhibition rate
[10] = system: Echinochloa crus-galli var. formosensis; test: Test Example 1: herbicidal effect test by soil application in paddy rice; conditions: Echinochloa crus-galli, soil, 336 h; 120 g active ingredient per 10 ares; applied immediately after sowing, flooded pots; 14 days after application; read-out: weed inhibition rate
Outline: (§3)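 Paddy soil in Wagner pots (1/10,000 acre), fertilized and puddled; 30 seeds per species sown at 0–1 cm, flooded to ~3 cm, greenhouse. Water-diluted emulsifiable concentrate dropped onto flooded pots right after sowing at 120 g active ingredient per 10 ares.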

[11] = system: Scirpus juncoides; test: as above; conditions: Schoenoplectiella juncoides, soil, 336 h; 120 g active ingredient per 10 ares; applied immediately after sowing, flooded pots; 14 days after application; read-out: weed inhibition rate
Outline: as §3

[12] = system: Echinochloa crus-galli var. formosensis; test: Test Example 5: herbicidal effect test by soil application in paddy rice (low dose); conditions: Echinochloa crus-galli, soil, 336 h; 7.5 g per 10 ares; applied immediately after sowing, flooded pots; 14 days after application; read-out: weed inhibition rate
Outline: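 Pre-emergence paddy test: seeds sown 0–1 cm (30 each), pots flooded ~3 cm, greenhouse. EC dilution dropped into water right after sowing, 7.5 g a.i./10 a. Duplicate pots; weed inhibition rate (%) by formula, day 14.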

[13] = system: Echinochloa crus-galli var. formosensis; test: Test Example 2: herbicidal effect test by application during growth period of paddy rice; conditions: Echinochloa crus-galli; 120 g per 10 ares; applied seven days after sowing, flooded pots; 14 days after application; read-out: weed inhibition rate
Outline: (§4)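 Flooded paddy pot test, greenhouse. Seeds 30/species, 0–1 cm depth, water ~3 cm. EC diluted in water, dropper-applied 7 d post-sowing at 120 g a.i./10 a. Inhibition rate (%) read 14 d after treatment; n=2.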

[14] = system: Scirpus juncoides; test: as above; conditions: Schoenoplectiella juncoides; 120 g per 10 ares; applied seven days after sowing, flooded pots; 14 days after application; read-out: weed inhibition rate
Outline: as §4

CC#CCO[C@@H]1C[C@]2(C(C)C)O[C@@]1(C)C[C@@H]2Cl [1-614, (1R,2S,4S,5R)-5-but-2-ynoxy-2-chloro-1-isopropyl-4-methyl-7-oxabicyclo[2.2.1]heptane]
≥ 80%: inhibition at 75 g/ha [1] | inhibition at 75 g/ha [2] | inhibition at 75 g/ha [3] | inhibition at 75 g/ha [4] | inhibition at 1200 g/ha [5] | inhibition at 1200 g/ha [6] | inhibition at 75 g/ha [7] | inhibition at 1200 g/ha [8] | inhibition at 1200 g/ha [9] | pest or weed control at 1200 g/ha [10] | pest or weed control at 1200 g/ha [11] | inhibition at 75 g/ha [12] | inhibition at 1200 g/ha [13] | inhibition at 1200 g/ha [14]

Cc1cccc(C)c1CO[C@@H]1C[C@]2(C(C)C)O[C@@]1(C)C[C@@H]2Cl [1-10, (1R,2S,4S,5R)-2-chloro-5-[(2,6-dimethylphenyl)methoxy]-1-isopropyl-4-methyl-7-oxabicyclo[2.2.1]heptane]
≥ 80%: inhibition at 75 g/ha [1] | inhibition at 75 g/ha [2] | inhibition at 75 g/ha [3] | inhibition at 75 g/ha [4] | inhibition at 1200 g/ha [5] | inhibition at 1200 g/ha [6] | inhibition at 75 g/ha [7] | inhibition at 1200 g/ha [8] | inhibition at 1200 g/ha [9] | pest or weed control at 1200 g/ha [10] | pest or weed control at 1200 g/ha [11] | inhibition at 75 g/ha [12] | inhibition at 1200 g/ha [13] | inhibition at 1200 g/ha [14]

CC(C)C12CC(OCc3c(F)cccc3F)C(C)(CC1Cl)O2 (stereo not shown) [1-1313, 5-chloro-2-[(2,6-difluorophenyl)methoxy]-1-methyl-4-isopropyl-7-oxabicyclo[2.2.1]heptane]
≥ 80%: inhibition at 75 g/ha [1] | inhibition at 75 g/ha [2] | inhibition at 75 g/ha [3] | inhibition at 75 g/ha [4] | inhibition at 1200 g/ha [5] | inhibition at 1200 g/ha [6] | inhibition at 75 g/ha [7] | inhibition at 1200 g/ha [8] | inhibition at 1200 g/ha [9] | pest or weed control at 1200 g/ha [10] | pest or weed control at 1200 g/ha [11] | inhibition at 75 g/ha [12] | inhibition at 1200 g/ha [13] | inhibition at 1200 g/ha [14]

CC(C)C12CC(OCc3ccccn3)C(C)(CC1Br)O2 (stereo not shown) [1-1386, 2-[(5-bromo-1-methyl-4-isopropyl-7-oxabicyclo[2.2.1]heptan-2-yl)oxymethyl]pyridine]
≥ 80%: inhibition at 75 g/ha [1] | inhibition at 75 g/ha [2] | inhibition at 75 g/ha [3] | inhibition at 75 g/ha [4] | inhibition at 1200 g/ha [5] | inhibition at 1200 g/ha [6] | inhibition at 75 g/ha [7] | inhibition at 1200 g/ha [8] | inhibition at 1200 g/ha [9] | pest or weed control at 1200 g/ha [10] | pest or weed control at 1200 g/ha [11] | inhibition at 75 g/ha [12] | inhibition at 1200 g/ha [13] | inhibition at 1200 g/ha [14]

CC(C)[C@]12C[C@@H](OCc3ccccn3)[C@](C)(C[C@@H]1Cl)O2 [1-658, 2-[[(1S,2R,4R,5S)-5-chloro-4-isopropyl-1-methyl-7-oxabicyclo[2.2.1]heptan-2-yl]oxymethyl]pyridine]
≥ 80%: inhibition at 75 g/ha [1] | inhibition at 75 g/ha [2] | inhibition at 75 g/ha [3] | inhibition at 75 g/ha [4] | inhibition at 1200 g/ha [5] | inhibition at 1200 g/ha [6] | inhibition at 75 g/ha [7] | inhibition at 1200 g/ha [8] | inhibition at 1200 g/ha [9] | pest or weed control at 1200 g/ha [10] | pest or weed control at 1200 g/ha [11] | inhibition at 75 g/ha [12] | inhibition at 1200 g/ha [13] | inhibition at 1200 g/ha [14]
